Assay results published in patent publication US6613322B2, “Method for treating a subject suffering from conditions associated with an extracellular zinc sphingomyelinase” (The Trustees of Columbia University in the City of New York, priority 1997, dated 2003).

Assays:
S-SMase = target: T1, S-SMase (Mus musculus, UniProt Q04519); assay: SMase assay of conditioned medium from J774 macrophages (SM micelles, pH 5.0); assay type: biochemical; details: 0.1 mM ZnCl2 versus 5 mM EDTA
T1 construct: endogenous in cells; host or cells: J774.A1 macrophages, serum-free conditioned medium
T1 sequence (Q04519 45-627): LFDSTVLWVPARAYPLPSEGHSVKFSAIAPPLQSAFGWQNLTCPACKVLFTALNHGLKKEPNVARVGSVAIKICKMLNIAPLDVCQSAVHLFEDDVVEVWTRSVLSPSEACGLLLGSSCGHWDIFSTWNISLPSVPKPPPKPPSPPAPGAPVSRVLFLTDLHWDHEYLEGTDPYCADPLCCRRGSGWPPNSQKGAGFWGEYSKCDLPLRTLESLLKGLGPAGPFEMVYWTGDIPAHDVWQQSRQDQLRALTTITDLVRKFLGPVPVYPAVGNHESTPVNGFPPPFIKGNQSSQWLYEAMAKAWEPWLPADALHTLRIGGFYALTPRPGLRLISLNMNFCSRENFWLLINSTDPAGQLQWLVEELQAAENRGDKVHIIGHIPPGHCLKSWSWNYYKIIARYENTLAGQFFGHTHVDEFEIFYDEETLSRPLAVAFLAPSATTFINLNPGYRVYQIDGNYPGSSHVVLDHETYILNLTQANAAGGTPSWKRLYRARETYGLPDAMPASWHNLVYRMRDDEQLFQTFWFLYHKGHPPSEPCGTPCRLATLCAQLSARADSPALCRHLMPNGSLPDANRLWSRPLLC
Description: FIGS. 14A-B. Sequential chelation and addition of Zn^2+ to secreted and intracellular SMase. Serum-free conditioned medium and a cell homogenate from J774 macrophages were prepared as described in “Experimental Procedures”. FIG. 14A, conditioned medium (CM) was assayed for SMase activity using 250 nM [^3H]sphingomyelin in Triton X-100 micelles in the presence of either 5 mM EDTA (first bar) or 0.1 mM ZnCl2 (second bar) for 1 h at 37° C. at pH 5.0. An aliquot of the Zn-activated conditioned medium was then incubated for 18 h in the presence of 10 mM EDTA, 10 mM 1,10-phenanthroline, and 0.6% Triton X-100 at 4° C. (EDTA PHNANTH) and then assayed for SMase activity (third bar). After chelation, a portion of this partially inactivated conditioned medium was then dialyzed against zinc-containing buffer C (150 mM NaCl, 10 mM Tris-HCl, 1 mM ZnCl2, 0.6% Triton X-100, pH 7.4) for 18 h and then assayed for SMase activity (fourth bar). FIG. 14B, an aliquot of cell homogenate (Cell Homgn) was assayed for SMase activity in the presence of assay buffer alone (first bar), 5 mM EDTA (second bar), or 0.1 mM ZnCl2 (third bar). Another aliquot of cell homogenate was incubated for 8 h in the presence of 10 mM EDTA, 10 mm 1,10-phenanthroline, and 0.6% Triton X-100 (EDTA PHNANTH) at 4° C. and then assayed for SMase activity (fourth bar). An aliquot of this chelator-treated cell homogenate was then dialyzed against zinc-containing buffer C for 18 h and then assayed for SMase activity (fifth bar).
(§1) SMase Assay—As previously described (Schissel et al., 1996), the standard 200-μl assay mixture consisted of up to 40 μl of sample (conditioned media or homogenized cells; see above) and a volume of assay buffer (0.1 M sodium acetate, pH 5.0) to bring the volume to 160 μl. […] The ceramide spots were scraped and directly counted to quantify [^3H]ceramide. Typically, the assay reactions contained approximately 20 μg of cellular homogenate protein and a volume of conditioned media derived from a quantity of cells equivalent to approximately 50 μg of cellular protein.

L-SMase = assay: SMase assay of CHO cell homogenate and 16,000-x-g pellet; assay type: biochemical, Chinese hamster
Description: FIGS. 18A-B. Zn^2+-dependency of SMase in a sonicated cell homogenate and 16,000-x-g pellet. CHO cells were grown to 90% confluency in Ham's F-12 media containing 10% HI-FBS and PSG and then washed 3 times with PBS before incubation in serum-free medium containing 0.2% BSA for 24 h. The cells were then washed 3 times in 0.25 M sucrose and the total cell homogenate and the 16,000-x-g cellular subfraction were isolated as described in “Experimental Procedures”. Twelve micrograms of the cell homogenate (Homogenate) and 2.5 μg of the 16,000-x-g pellet (16K-xg Pellet) were assayed for SMase activity in the presence of either 5 mM EDTA (hatched bars) or 0.1 mM ZnCl2 (solid bars) for 1 h at 37° C. at pH 5.0. […]
as §1

For `[Cl-].[Cl-].[Zn+2]` [Zn^2+, ZnCl2], which “activation of S-SMase” value (S-SMase) is on record?
The value was “markedly activated”.

What about the “effect of exogenous Zn2+ on SMase activity” value (L-SMase; 16,000-x-g pellet (intact lysosomes), sonicated) of the same compound?
The value was “substantially stimulated”.

What about the “effect of exogenous Zn2+ on SMase activity” value (L-SMase; sonicated cell homogenate) of the same compound?
The value was “no effect”.
